Entries after “also recorded” stand apart in the source; their conditions may differ. Residues, ends and D or L forms follow the SMILES beside them.
Experiments:
[1] = tested on: S. Typhimurium (14028) Δphd-doc::Km strains coexpressing DocSTm; experiment: Growth rescue experiment in S. Typhimurium; type: cell-based; details: coexpression of DocSTm (pBAD33, arabinose) and Phd construct (pCA24N, basal expression); OD600 over time, M9 minimal medium; average of three independent experiments
Procedure: The cotransformations above were also performed with an empty pBAD33 plasmid, as a control for the absence of DocSTm expression.
For the growth rescue experiment, overnight (1% tryptone, 0.5% yeast extract, 0.5% NaCl, 1% glucose, 100 μg/mL of carbenicillin, and 34 μg/mL of chloramphenicol) cultures of the generated S. Typhimurium strains were diluted to an OD600 of approximately 0.006 into fresh M9 minimal medium supplemented with 0.5% or 1% arabinose, 0.4% glycerol, 0.4% casamino acids, 100 μg/mL of carbenicillin, and 34 μg/mL of chloramphenicol. Cell growth at a given time was monitored at OD600 with a Genesys 140 Visible Spectrophotometer (Thermo Scientific).

DocSTm [2] = experiment: Differential scanning fluorimetry (thermal stabilisation of Doc); type: binding, S. Typhimurium; details: for melting temperature shift ΔTm: DSF, DocSTm 5 μM, analyte 50 μM, Tm with analyte minus Tm of free DocSTm (42.9 ± 0.9 °C), SYPRO Orange, 20 mM K2HPO4, 50 mM (NH4)2SO4, pH 8.0, triplicate; for Average Tm: average of 3 replicates
Summary of the method: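 Thermal shift of 5 μM Doc in 20 mM K2HPO4, 50 mM (NH4)2SO4, pH 8.0 with 3× SYPRO Orange, heated from 25 to 95 °C in a qPCR instrument, in triplicate. Melting temperatures from Boltzmann sigmoid fits of the transition region.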

DocSTm [3] = experiment: Surface plasmon resonance binding to immobilised Doc; set-up: species or system S. Typhimurium; details: for fold decrease in affinity (given as decrease/loss in Kd) compared with peptide 1: SPR Kd relative to wild-type peptide 1; for koff × 10^-6 / kon × 10^6: 1:1 kinetic fit, mean ± SD of at least 3 replicates; for kon × 10^6: single-cycle kinetics (multicycle for PhdSTm1-73); for Half-life of the complex: t1/2 = ln2 / koff
Summary of the method: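 Doc captured on an NTA chip at 22 °C in 10 mM HEPES, 500 mM NaCl, 50 μM EDTA, 0.005% TWEEN 20, pH 8.0. Analytes injected as 80 s pulses at 30 μL/min in multicycle or single-cycle kinetics.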

DocSTm [4] = experiment: Dot blot phosphorylation assay (EF-Tu phosphorylation by Doc); type: biochemical, S. Typhimurium; details: α-pThr, DocSTm 1 μM, EF-TuSTm 3 μM, ATP 1 mM, inhibitor 10 μM to 5 nM (3-fold dilutions), 16 h at RT
Procedure: Samples were prepared to a final volume of 10 μL. […] Samples were incubated for 16 h at RT and subsequently spotted on a nitrocellulose membrane. Phosphorylated EF-Tu was detected by immunodecoration using a rabbit monoclonal antiphosphothreonine antibody (Abcam, ab218195) at 1:2000 dilution (1 h at 4 °C), followed by incubation with a goat antirabbit IgG (H+L) HRP conjugate antibody (Advansta) at 1:10 000 dilution (1 h at RT). Chemiluminescence was developed using the HRP Luminata kit (Merck, WBLUR0100) and captured by an ImageQuant LAS4000 Western blot imaging system (Cytiva).

[5] = DocSTm 5 µM + 50 µM binder, replicate 1
[6] = DocSTm 5 µM + 50 µM binder, replicate 2
[7] = DocSTm 5 µM + 50 µM binder, replicate 3
[8] = SPR multicycle, steady-state fit, replicate 1
[9] = SPR multicycle, steady-state fit, replicate 2
[10] = SPR multicycle, steady-state fit, replicate 3
[11] = SPR, multicycle kinetics, steady-state 1:1 fit, mean ± SD of 3 replicates
[12] = SPR, kinetic fit, KD calculated from mean koff and kon, SD propagated, 22 °C, pH 8.0

Compound | rescue of Salmonella growth from DocSTm-induced growth inhibition (in words) [1] | melting temperature shift ΔTm (DocSTm [2]) | Average Tm (DocSTm [2]; DocSTm 5 µM + 50 µM binder) | Tm (DocSTm [2]; [5]) | Tm (DocSTm [2]; [6]) | Tm (DocSTm [2]; [7]) | fold decrease in affinity (given as decrease/loss in Kd) compared with peptide 1 (DocSTm [3]) | Kd (DocSTm [3]; [8]) | Kd (DocSTm [3]; [9]) | Kd (DocSTm [3]; [10]) | Kd (DocSTm [3]; [11]) | inhibition of EF-TuSTm phosphorylation by DocSTm (in words) (DocSTm [4]) | also measured
CSCC[C@H](NC(=O)[C@H](C)NC(=O)[C@H](C)NC(=O)[C@H](C)NC(=O)[C@H](Cc1ccccc1)NC(=O)[C@H](CCC(=O)O)NC(=O)[C@H](CC(=O)O)NC(=O)[C@H](CC(=O)O)NC(=O)[C@H](CCSC)NC(=O)[C@H](Cc1c[nH]c2ccccc12)NC(C)=O)C(=O)N[C@@H](C)C(=O)N[C@H](C(=O)N[C@@H](Cc1c[nH]cn1)C(=O)NCC(=O)N[C@@H](CC(N)=O)C(=O)N[C@@H](CCC(=O)O)C(=O)N[C@@H](CC(C)C)C(=O)N[C@@H](CCCNC(=N)N)C(=O)N[C@@H](CCC(=O)O)C(=O)N[C@@H](CC(C)C)C(=O)N[C@@H](C)C(=O)N[C@@H](CC(=O)O)C(=O)N[C@@H](CCCCN)C(=O)O)C(C)C [peptide 7] (Ac-WMDDEFAAAMAVHGNELRELADK-OH; C-terminus assumed) | unable to rescue growth | 15.5 ± 1.5 °C | 58.4 ± 1.2 °C | 59.7 °C | 57.7 °C | 57.6 °C | ~300 fold | 0.0254 ± 0.003 µM | 0.0194 ± 0.0022 µM | 0.0151 ± 9e-05 µM | 0.0199 ± 0.00518 µM |  | 
CC[C@H](C)[C@H](NC(=O)[C@H](C)NC(=O)[C@H](C)NC(=O)[C@H](Cc1ccccc1)NC(=O)[C@H](CCC(=O)O)NC(=O)[C@H](CC(=O)O)NC(=O)[C@H](CC(=O)O)NC(=O)[C@H](CCSC)NC(=O)[C@H](Cc1c[nH]c2ccccc12)NC(C)=O)C(=O)N[C@@H](C)C(=O)N[C@@H](C)C(=O)N[C@H](C(=O)N[C@@H](Cc1c[nH]cn1)C(=O)NCC(=O)N[C@@H](CC(N)=O)C(=O)N[C@@H](CCC(=O)O)C(=O)N[C@@H](CC(C)C)C(=O)N[C@@H](CCCNC(=N)N)C(=O)N[C@@H](CCC(=O)O)C(=O)N[C@@H](CC(C)C)C(=O)N[C@@H](C)C(=O)N[C@@H](CC(=O)O)C(=O)N[C@@H](CCCCN)C(=O)O)C(C)C [peptide 8] (Ac-WMDDEFAAIAAVHGNELRELADK-OH; C-terminus assumed) | fully rescued Salmonella growth after 18 h of culture | 20.8 ± 1.0 °C | 63.7 ± 0.4 °C | 64.1 °C | 63.3 °C | 63.7 °C | 8- to 30 fold |  |  |  |  |  | Kd (DocSTm [3]; SPR kinetic fit, replicate 1): 0.00067 µM; Kd (DocSTm [3]; SPR kinetic fit, replicate 2): 0.000611 µM; Kd (DocSTm [3]; SPR kinetic fit, replicate 3): 0.000485 µM; koff × 10^-6 (DocSTm [3]; SPR, 22 °C, pH 8.0): 1223 ± 504 ×10^-6 s-1; kon × 10^6 (DocSTm [3]; SPR, 22 °C, pH 8.0): 2.221 ± 1.307 ×10^6 M-1 s-1; Kd (DocSTm [3]; [12]): 0.000553 ± 0.000397 µM; Half-life of the complex (DocSTm [3]): 9.6 ± 36 min
CC[C@H](C)[C@H](NC(=O)[C@H](C)NC(=O)[C@H](C)NC(=O)[C@H](Cc1ccccc1)NC(=O)[C@H](CCC(=O)O)NC(=O)[C@H](CC(=O)O)NC(=O)[C@H](CC(=O)O)NC(=O)[C@H](CCSC)NC(=O)[C@H](Cc1c[nH]c2ccccc12)NC(C)=O)C(=O)N[C@@H](CCSC)C(=O)N[C@@H](C)C(=O)N[C@H](C(=O)N[C@@H](C)C(=O)NCC(=O)N[C@@H](CC(N)=O)C(=O)N[C@@H](CCC(=O)O)C(=O)N[C@@H](CC(C)C)C(=O)N[C@@H](CCCNC(=N)N)C(=O)N[C@@H](CCC(=O)O)C(=O)N[C@@H](CC(C)C)C(=O)N[C@@H](C)C(=O)N[C@@H](CC(=O)O)C(=O)N[C@@H](CCCCN)C(=O)O)C(C)C [peptide 10] (Ac-WMDDEFAAIMAVAGNELRELADK-OH; C-terminus assumed) | provided only a partial rescue | 20.9 ± 1.0 °C | 63.7 ± 0.4 °C | 63.3 °C | 63.7 °C | 64.2 °C | ~300 fold | 0.0122 ± 0.0018 µM | 0.0131 ± 0.0014 µM | 0.04 ± 0.00287 µM | 0.0218 ± 0.0158 µM |  | 
CC[C@H](C)[C@H](NC(=O)[C@H](C)NC(=O)[C@H](C)NC(=O)[C@H](Cc1ccccc1)NC(=O)[C@H](CCC(=O)O)NC(=O)[C@H](CC(=O)O)NC(=O)[C@H](CC(=O)O)NC(=O)[C@H](CCSC)NC(=O)[C@H](Cc1c[nH]c2ccccc12)NC(C)=O)C(=O)N[C@@H](CCSC)C(=O)N[C@@H](C)C(=O)N[C@H](C(=O)N[C@@H](Cc1c[nH]cn1)C(=O)NCC(=O)N[C@@H](CC(N)=O)C(=O)N[C@@H](CCC(=O)O)C(=O)N[C@@H](C)C(=O)N[C@@H](CCCNC(=N)N)C(=O)N[C@@H](CCC(=O)O)C(=O)N[C@@H](CC(C)C)C(=O)N[C@@H](C)C(=O)N[C@@H](CC(=O)O)C(=O)N[C@@H](CCCCN)C(=O)O)C(C)C [peptide 14] (Ac-WMDDEFAAIMAVHGNEARELADK-OH; C-terminus assumed) | unable to rescue growth | 14.3 ± 0.9 °C | 57.2 ± 0.2 °C | 57.4 °C | 57.2 °C | 57.0 °C | ~300 fold | 0.025 ± 0.0005 µM | 0.0239 ± 0.00094 µM | 0.0154 ± 0.00213 µM | 0.0214 ± 0.00525 µM |  | 
CC[C@H](C)[C@H](NC(=O)[C@H](C)NC(=O)[C@H](C)NC(=O)[C@H](Cc1ccccc1)NC(=O)[C@H](Cc1c[nH]c2ccccc12)NC(C)=O)C(=O)N[C@@H](CCSC)C(=O)N[C@@H](C)C(=O)N[C@H](C(=O)N[C@@H](Cc1c[nH]cn1)C(=O)NCC(=O)N[C@@H](CC(N)=O)C(=O)N[C@@H](CCC(=O)O)C(=O)N[C@@H](CC(C)C)C(=O)N[C@@H](CCCNC(=N)N)C(=O)N[C@@H](CCC(=O)O)C(=O)N[C@@H](CC(C)C)C(=O)O)C(C)C [peptide 23] (Ac-WFAAIMAVHGNELREL-OH; N-terminus and C-terminus assumed) |  | 7.9 ± 1.0 °C | 50.7 ± 0.3 °C | 50.54 °C | 50.60 °C | 51.08 °C | 30 fold |  |  |  |  | inactive in all concentrations tested; also recorded: poor DocSTm inhibitors | Kd (DocSTm [3]; SPR kinetic fit, replicate 1): 0.00185 µM; Kd (DocSTm [3]; SPR kinetic fit, replicate 2): 0.00194 µM; Kd (DocSTm [3]; SPR kinetic fit, replicate 3): 0.00218 µM; koff × 10^-6 (DocSTm [3]; SPR, 22 °C, pH 8.0): 2794 ± 42 ×10^-6 s-1; kon × 10^6 (DocSTm [3]; SPR, 22 °C, pH 8.0): 1.413 ± 0.136 ×10^6 M-1 s-1; Kd (DocSTm [3]; [12]): 0.00198 ± 0.000193 µM; Half-life of the complex (DocSTm [3]): 4.14 ± 0.06 min
Ac-WNELRELADK-OH [compound 25] |  | 1.3 ± 0.9 °C | 44.2 ± 0.1 °C | 44.1 °C | 44.2 °C | 44.4 °C |  |  |  |  |  | inactive | Average Tm (DocSTm [2]; DocSTm 5 µM + 100 µM peptide): 43.3 ± 0.1 °C; Tm (DocSTm [2]; DocSTm 5 µM + 100 µM peptide, replicate 1): 43.2 °C; Tm (DocSTm [2]; DocSTm 5 µM + 100 µM peptide, replicate 2): 43.2 °C; Tm (DocSTm [2]; DocSTm 5 µM + 100 µM peptide, replicate 3): 43.4 °C; binding to DocSTm by SPR (in words) (DocSTm [3]; SPR): Affinity was too weak to be determined by SPR; also recorded: no measurable affinities could be obtained by SPR
PhdSTm: full-length wild-type Phd antitoxin protein of S. Typhimurium | prevented Doc-induced growth inhibition |  |  |  |  |  |  |  |  |  |  | no phosphorylation was detected | Half-life of the complex (DocSTm [3]; listed as PhdSTm1-73): 402 ± 84 min
